Consider 2 substances from PMC11477141, “Chemokine Receptor N-Terminus Charge Dictates Reliance on Post-Translational Modifications for Effective Ligand Capture and Following Boosting by Defense Peptides” (International Journal of Molecular Sciences, 2024).

Where no end group is shown, it is not given here.

For orientation: Kd means the concentration at which binding is half-saturated.

Test [1] deals with peptides corresponding to the CCR5 receptor N-terminus. As to conditions: cited from earlier work. The text has this: CCR5, in contrast to CCR1, has an N-terminus that is sparse in acidic amino acids but has multiple tyrosine sulfation sites as well as O-glycosylation sites, that might increase the negative charge of the receptor N-terminus through post-translational modifications. CCL5 affinity towards peptides corresponding to the CCR5 receptor N-terminus increases by ≥100-fold if the peptides are sulfated on Y10 and Y14 [30], and the same tyrosine sulfation is needed for HIV1env protein binding and viral entry.

A further test has as its target T1, CCR1 (Homo sapiens, UniProt P32246).
T1 construct: expressed in transfected cells; host or cells: CHO-K1, CHO-pgsB618 (GAG-minus), HEK293 WT / DeltaSia / sC
T1 sequence (P32246 1-355): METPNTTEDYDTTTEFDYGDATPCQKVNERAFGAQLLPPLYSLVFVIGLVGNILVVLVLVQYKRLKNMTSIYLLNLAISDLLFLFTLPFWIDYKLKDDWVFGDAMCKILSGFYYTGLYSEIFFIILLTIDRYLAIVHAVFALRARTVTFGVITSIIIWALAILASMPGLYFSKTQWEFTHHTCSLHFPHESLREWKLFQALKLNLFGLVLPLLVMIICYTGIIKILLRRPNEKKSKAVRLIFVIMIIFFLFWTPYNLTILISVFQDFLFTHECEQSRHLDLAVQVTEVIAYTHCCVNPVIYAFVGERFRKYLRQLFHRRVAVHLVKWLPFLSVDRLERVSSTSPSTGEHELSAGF
In words: BRET CAMYEL cAMP sensor assay of ligand-induced Gαi signaling via CCR1. The test is classed as cell-based. The conditions noted are these: n = 3. How it is done: For quantification of signaling initiated immediate downstream of receptor activation, we used the cAMP binding CAMYEL sensor to perform bioluminescence resonance energy transfer (BRET)-based assays. Shortly, in this assay increased receptor activation leads to an increase in BRET ratio. For detailed information see the Materials and Methods section.
In signaling assays testing the boosting ability of basic peptides, transfected cells were aliquoted into 96-well plates in the presence of 10 µM peptide or PBS vehicle. After R-Luc substrate addition, chemokines were added to reach final concentrations ranging from 0–100 nM (0, 0.1, 1, 10, and 100 nM) and forskolin was applied before reading emission at 475 and 525 nm.
BRET measurements of Gαi signaling and β-arrestin recruitment: Cells were seeded in 6-well plates (500,000 cells/well) and transiently transfected the following day. For BRET measurements of Gαi signaling, cells were transfected with vectors encoding the human chemokine receptors as indicated (160 ng/well) and the CAMYEL sensor (cAMP sensor, YFP-Epac-RLuc) (840 ng/well) using Lipofectamine (6 µL/well). Briefly, DNA was dissolved in 125 µL OPTI-MEM and Lipofectamine was dissolved in 125 µL OPTI-MEM. The DNA and Lipofectamine solutions were combined into a transfection mixture. The transfection mixture was added dropwise to cells incubated in OPTI-MEM (1 mL/well). Transfections were terminated after 5 h by adding 1 mL of fresh culture medium on top of the OPTI-MEM. The following day the cells were loosened from the plates in PBS with 5 mM glucose and subsequently aliquoted in white 96-well iso plates (~25,000 cells/well). When using C21TP variants and defense peptides (hBD2 and histatin), these were added to a final concentration of 10 μM/well, while an equal amount of PBS was added to control cells. The bioluminescence substrate coelenterazine was added to a final conc. of 5 µM. After 10 min, varying ligand concentrations were added. For BRET measurements of Gαi signaling, forskolin was added 5 min after the addition of the ligand, to a final conc. of 5 µM. The plates were kept in the dark at all times. A Perkin Elmer Envision machine was used for measuring the emission signals at 530 and 480 nm. The BRET signal is determined as the ratio eYFP (530 nm)/Rluc (480 nm).
BRET principle with CAMYEL: For quantification of signaling initiated immediately downstream of receptor activation, we used the cAMP binding CAMYEL sensor to perform bioluminescence resonance energy transfer (BRET) based assays. In this assay we measure changes in intracellular cAMP levels in response to receptor activation. Activation of chemokine receptors lead to a decrease in cAMP through inhibition of adenylate cyclase (AC). In the current setup we initially add forskolin that stimulates AC directly to induce an increase in intracellular cAMP, and we then measure the ability of a ligand (chemokine) to counteract the forskolin-induced increase in cAMP. The cAMP sensor (CAMYEL cAMP sensor, YFP-Epac-RLuc) carries the donor Renilla luciferase (Rluc) and the acceptor YFP. Coelenterazine is a substrate for Rluc that will emit light at around 475 nm upon enzymatic cleavage catalyzed by Rluc. When Rluc and YFP are in close proximity, the energy from the emitted light from coelenterazine can be transferred to YFP, resulting in an excitation of YFP, leading to a BRET signal around 525 nm. EPAC is a cAMP binding protein that changes conformation upon cAMP binding. During low cAMP concentrations, Rluc and YFP are near each other, and a strong BRET signal at 525 nm is obtained. When cAMP levels increase, cAMP will bind to EPAC, creating a conformational change, separating Rluc and YFP, reducing the BRET ratio, and increasing the emission from Rluc at 475 nm. Thus, by measuring the ratio between the cAMP-bound (475 nm) and the cAMP-free (525 nm) state of CAMYEL we obtain a measure of receptor activation. […]
For orientation: BRET reads energy transfer from a luciferase to a nearby fluorophore.

A further test has as its target naked CCR1 N-terminus (Homo sapiens, UniProt P32246). Put plainly: Fluorescence polarization binding to FAM-labeled CCR1 N-terminal peptide. As to conditions: FAM probe 250 nM, FP buffer PBS:MilliQ 1:3, peptide 12.21 nM to 100 µM, n = 3, read-out: dissociation constant (Kd) for CCR1 N-terminal peptide. How it is done:
Fluorescence polarization (FP) assay: The carboxyfluorescein (FAM)-labeled peptides representing the CCR1 and CCR5 N-termini functioned as the probes for quantifying the interaction between the receptor N-terminus and C21TP^81-111. The probe was diluted in FP buffer (1:3, PBS:MilliQ) and 10 µL was added to a final concentration of 250 nM per well in a black 384-well plate (Corning). The C21TP^81-111 peptide (2 mM) was diluted using a two-fold dilution series; 30 µL of the peptide was added to each well to final concentrations ranging from 12.21 nM to 100 µM. Blanks containing 10 µL probe and 30 µL FP buffer were included. The plate was spun down at 1000 rpm for 1 min and the FP signal was measured on a Flex station using SoftMax Pro software 7.0. Each experiment was conducted in triplicate. The binding curves were generated by plotting the FP signal, expressed as millipolarization units (mP), against C21TP^81-111 concentration. The dissociation constant (Kd) value was calculated using GraphPad Prism 9.
Probes: • CCR1: (5,6-FAM)-[…], • CCR5: (5,6-FAM)-ADYQVSSPIYDINYYTSEP.
For orientation: In fluorescence polarisation assays a small probe gives low polarisation when free and higher when bound to something large.

[2] abbreviates: CHO-K1 cells, 10 µM peptide, chemokine 0-100 nM.
The mark [3] stands for this setting: HEK293 WT, DeltaSia and sC cells, 10 µM peptide.

Sequence of naked CCR1 N-terminus (P32246 with tags, fused parts or gaps limits assumed): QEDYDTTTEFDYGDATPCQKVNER

“CCL5: human chemokine from Peprotech, overall basic”: the “increase of affinity towards CCR5 N-terminus peptides if sulfated on Y10 and Y14” value in test [1] is reported as at least 100 fold. Also, the “LogEC50 of CCL5-induced Gαi signaling via CCR1” value with CCR1 (CHO GAG-minus cells (CHO-pgsB618)) was −9.42 ± 0.131; in the test with CCR1 (CHO GAG-plus (WT CHO-K1) cells), −8.89 ± 0.133. Also, the “Gαi signaling via CCR1 in DeltaSia and sC cells” value in the test with CCR1 (HEK293 DeltaSia and sC, CCL5 oligomerization variants experiment) was “remains high”. The “Gαi signaling via CCR1 in DeltaSia and sC cells compared to WT cells” value in the test with CCR1 (HEK293 DeltaSia and sC) was “persists in DeltaSia and sC to almost the same high level as observed in WT cells”.

Regarding “RKDRGASKTGKKGKGSKGCKRTERSQTPKGP [C21TP^81-111]”, the “boosting of CCL5 signaling via CCR1 in GAG-plus and GAG-minus cells” value at CCR1 (CHO GAG-plus and CHO GAG-minus (CHO-pgsB618) cells, 10 µM peptide) is “boosted”. Further, at CCR1 (setting [2]), the “boosting of CCL5-induced Gαi signaling via CCR1” value is reported as “boosted”, the “boosting of CCL7-induced Gαi signaling via CCR1” value is reported as “boosted” and the “effect on CCL3-induced Gαi signaling via CCR1” value was “not affected”. On CCR1 (HEK293 DeltaSia cells, 10 µM peptide), the “boosting of signaling by CCL5, E26A and E66A via CCR1” value (“boosting of signaling by CCL5” for short) is on record as “tendency for boosting”. In addition, the “boosting of signaling by CCL5” value at CCR1 (HEK293 WT cells, 10 µM peptide) is recorded as “boosting occurs with all three versions of CCL5”. In addition, at CCR1 (setting [3]), the “boosting of CCL3 signaling via CCR1” value was “not boosted”, the “boosting of CCL5 signaling via CCR1” value is “preserved across all three cell lines” and the “boosting of CCL7 signaling via CCR1” value is “persists”. The “boosting of signaling by CCL5” value at CCR1 (HEK293 sC cells, 10 µM peptide) is “significant boosting”. On naked CCR1 N-terminus, the Kd is around 2.89 µM.
